Legend:
[1] = tested on: K562luc cells; assay: Determination of drug temporal penetrance (Tp); assay type: in vivo, nude mice; settings: daily ip from day 15 to day 35, imaged till day 45; AN019 20 mg/kg, AN024 20 mg/kg, Imatinib 10 mg/kg
Protocol: The temporal penetrance was calculated applying the following equation, […].
P=photon counts at day ‘a’, day ‘ter’, or day ‘b’ where ‘a’ is the day when drug treatment was stopped and ‘ter’ is the day when the experiment was terminated and ‘b’ is the day where P is minimum after day a but before day ‘ter’.
n=number of animals alive when P was measured.
The animals were imaged at 6 day intervals post transplantation. […] Drug treatment was stopped on day 35 and animals were imaged till day 45, and calculated as described in methods.

[2] = tested on: K562 luciferase expressing cells; assay: Leukemic survival study; assay type: in vivo, nude mice
Text: K562 luciferase expressing cells were implanted intraperitoneally into nude mice; the mice were scanned using the xenogeny IVIS image station after ip injections of luciferin does determine implantations. Drug treatment was started as in previous studies day 15 after implantation. The animals were given treatment till day 42, after which drug treatment was stopped and survival of the animals determined as per the animal care regulations. […] Drug treatment was withdrawn on day 42 post implantation and survival of animals determined.

[3] = tested on: K562 luc human leukemia cells; assay: Luciferase expression in nude mice implanted with K562 luc cells, low dose oral administration; assay type: in vivo
Text: Five mice were used per group and divided into 24 groups+2 control. All groups were implanted with K562 normal/luc cells. Of the 24 groups, 12 were used for luciferase studies whereas the other 12 were used for blood smear count studies.

[4] = tested on: U87 glioma cells; assay: In vitro angiogenic assay, U87 conditioned media on human dermal endothelial cells; assay type: cell-based; settings: with radiation
Protocol: (§1) The in vitro angiogenesis of 4910, 5310 and U87 glioma cells and MDAMB231 and ZR71 breast cancer cells in the presence of specified concentrations of compounds were determined as follows, cells (2×10^4/well) were seeded in 8-well chamber slides and were treated with various concentrations of test compounds. After a 24 h incubation period, the conditioned media was removed and added to a 4×10^4 human dermal endothelial cell (monolayer in 8-well chamber slides) and the human dermal endothelial cells were allowed to grow for 72 h. Cells were then fixed in 3.7% formaldehyde and stained with H&E and photographed.

[5] = tested on: K562; assay: ED50 and therapeutic index in leukemic mice (K562); assay type: in vivo; settings: Mus musculus, K562, po, read-out: ED50 (po) Mice
[6] = in vivo; settings: mouse
[7] = tested on: AKT, ERK and Pi3k in ZR71 breast cancer cells; assay: Western blot analysis, ZR71; assay type: cell-based; settings: 24 h
Protocol: (§2) Western blot analysis of 4910, 5310 and U87 glioma cells and MDAMB231 and ZR71 breast cancer cells in the presence of specified concentrations of compounds were assessed as per standard protocols. Cells were treated with AN019, AN024 or Temozolomide at the specified concentrations. 24 h after treatment, cells were collected and cell lysates extracted. Equal quantities of proteins were fractionated by SDS-PAGE. The fractionated proteins were blotted on to nylon membranes and immunoprobed for AKT, ERK and Pi3k. Breast cancer cell protein isolates were additionally immunoprobed for EGFR, ErbB1, ErbB2 and ErbB3.

[8] = tested on: 4910 glioma cells; assay: In vitro angiogenic assay, 4910 conditioned media on human dermal endothelial cells; assay type: cell-based; settings: 4910 cells, with radiation
Protocol: as §1

[9] = tested on: MDAMB231 breast cancer cells; assay: In vitro angiogenic assay, MDA-MB-231 conditioned media on human dermal endothelial cells; assay type: cell-based; settings: MDA-MB-231 cells, with radiation
Protocol: as §1

[10] = tested on: K562 cells; assay: Nude mice implanted with K562 cells: spleenic enlargement, Crk expression, leukemia growth index; assay type: in vivo
Text: Mice were sacrificed after a decrease in percent leukemia growth index (LGI) was observed and spleen harvested.
Control mice also developed random subcutaneous tumors showing Crk expression, indicative of the presence of K562 cells.

[11] = tested on: Baf3 murine leukemia cells T315I; assay: Blast cell count in nude mice implanted with Baf3 T315I cells; assay type: in vivo; settings: Baf3T315I; Imatinib 10 mg/kg, AN019 20 mg/kg, AN024 20 mg/kg, oral gavage or ip from day 15; day 42
Text: (§3) Blood smears were obtained via the tail vein or via the femoral vein every 6th day and blast cells counted and graphically represented.
(§4) Abdominal swelling and decrease in activity was monitored daily, blood smear taken via the tail vein or the femoral vein every 6th day and H&E stained as per standard protocols. 42 days after implantation, mice were sacrificed and spleens harvested.
(§5) Blood from tail vein or the femoral vein was taken every 6th day from Baf3 cell implanted mice until day 42.
(§6) Nude mice were intraperitoneally implanted with Baf3 mutant cells (wt, T315I, M351T or E255K). […] Blood was drawn from the femoral vein or tail vein every 6th day and blast cell count determined and graphically represented.

[12] = tested on: Baf3 murine leukemia cells E255K; assay: Blast cell count in nude mice implanted with Baf3 E255K cells; assay type: in vivo; settings: Baf3E255K (printed E225K); Imatinib 10 mg/kg, AN019 20 mg/kg, AN024 20 mg/kg, oral gavage or ip from day 15; day 42
Text: as §3, §4, §5, §6

[13] = tested on: pAKT and pERK in glioma and breast cancer cells; assay: Western blot analysis of pAKT and pERK, cell line not stated; assay type: cell-based; settings: both with and without radiation
Protocol: as §2

[14] = tested on: BCR-Abl, Crk and phospho Stat5AY^694/699 in K562 cells; assay: Western blot analysis of K562 cells treated with AN024; assay type: cell-based, human
Protocol: Expression levels of BCR-Abl, Crk and phospho Stat5AY^694/699 were determined by western blot analysis in K562 cells treated with various concentrations of AN024 (1, 2.5, 5 or 10 μg/ml) for 12 h.
K562 cells were treated with 1, 2.5, 5, or 10 μg/ml of AN024. After 12 h, cells were collected and total cell lysates were prepared in extraction buffer containing Tris [0.1 M, pH 7.5], Triton-X114 (1.0%), EDTA (10 mM), aprotinin, and phenylmethylsulphonyl fluoride. […] The membranes were probed for 2 h with antibodies against BCR-Abl, Crk and phospho Stat5AY^694/699 per standard protocols. The membranes were subsequently washed three times with PBS to remove excess primary antibodies, incubated with appropriate HRP conjugated secondary antibodies as required, and then developed according to enhanced chemiluminesence protocol (Amersham, Arlington Heights, Ill.).
FIG. 1 illustrates results of this testing. K562 cells were treated with various concentrations of AN024 (1-10 μg/ml). Cell lysates were collected and western blot analysis was performed per standard protocols. Expression levels of BCR-Abl, Crk and Stat5AY^694/699 were determined.

With Cc1ccc(NC(=O)c2cccc(S(=O)(=O)C(F)(F)F)c2)cc1Nc1nccc(-c2cccnc2)n1 [AN024, (3-trifluoromethylsulfonyl)-N-[4-methyl-3-(4-pyridin-3yl-pyrimidin-2ylamino)-phenyl]-benzamide] the “temporal penetrance (Tp)” value [1] was 2.4, the “blast cell count from blood smears after withdrawal of drug treatment” value ([2]; drug treatment withdrawn on day 42 (FIG. 6C)) was “showed effectiveness after withdrawal of drug treatment” and the “animals showing no signs of leukemia / complete absence of leukemic symptoms” value ([2]; of 10 animals, treatment day 15 to day 42, then withdrawn, AN024 read on day 55) was 8 animals. The “mortality (day post implantation)” value ([2]; treatment day 15 to day 42, then withdrawn) was 38 days, the luciferase expression ([3]; 1 mg/kg) was “did not induce a decrease in luciferase expression” and the luciferase expression ([3]; 5 mg/kg) was “caused a decrease in luciferase expression”. The luciferase expression ([3]; 10 mg/kg) was “caused a decrease in luciferase expression”, the luciferase expression ([3]; 20 mg/kg) was “caused a decrease in luciferase expression” and the inhibition of angiogenesis [4] was “increase in inhibition after radiation”. The ED50 [5] was 10 mg/kg, the MTD [6] was 500 mg/kg and the LD50 ([6]; po) was 1440 mg/kg. For the same molecule, the AKT levels ([7]; ZR71, after radiation) was “decrease in AKT expression”, the PI3k levels ([7]; ZR71, with radiation) was “decrease in PI3k levels” and the AKT levels ([7]; ZR71, without radiation) was “did not show any significant change”. The inhibition of angiogenesis [8] was “significant inhibition of angiogenesis”, the inhibition of angiogenesis [9] was “only a slight inhibition” and the “leukemia growth index (LGI)” value ([10]; K562 implanted nude mice) was “caused the regression of LGI”. For the same molecule, the “Crk expression in paraffin sections of spleen” value ([10]; immuno-probed spleen sections) was “only basal level expression of Crk expression comparable to negative control”, the Spleenic enlargement ([10]; ip injections, visual inspection of harvested spleen) was “did not show any spleenic enlargement” and the “physiological, phenotypic or behavioral abnormality” value ([10]; treated K562 implanted nude mice) was “no abnormal physiological, phenotypic or behavioral abnormality”. For the same molecule, the “blast cell count in blood smears” value [11] was “significant decrease in blast cell count”, the “blast cell count in blood smears” value [12] was “significant decrease in blast cell count” and the pERK levels [13] was “reduction on pERK levels but to a lesser extent than AN019”. The “BCR-Abl, Crk and phospho Stat5AY^694/699 protein levels” value ([14]; K562 cells, 1, 2.5, 5 or 10 μg/ml, 12 h, western blot) was “decreased in a dose dependent manner” and the BCR-Abl kinase activity ([14]; K562 cells, 1-10 μg/ml) was “inhibited BCR-Abl kinase activity in a dose dependent manner”.
